Source: ChEMBL document CHEMBL1201862, “PubChem BioAssay data set” (2004)
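Dose response: 5 concentrations. Exposure: 48 h. Format: 96-well plates. Endpoint: linear interpolation; highest concentration if not reached. Here, GI50 denotes the concentration required for 50% inhibition of growth.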 Active and inactive are the calls of the source. Rule as the data show it: active = GI50 up to about 1.1 µM and inactive = higher.

Assays:
Experiment in all cases: growth of human tumour cells (NCI), 48 h
Hs-578T = system: Hs-578T
MCF7 = system: MCF7
SK-MEL-5 = system: SK-MEL-5
SR = system: SR
HCC 2998 = system: HCC 2998
SK-MEL-2 = system: SK-MEL-2
NCI-H226 = system: NCI-H226
KM12 = system: KM12
BT-549 = system: BT-549
RXF 393 = system: RXF 393
OVCAR-3 = system: OVCAR-3
NCI-H23 = system: NCI-H23
OVCAR-5 = system: OVCAR-5
HL-60 = system: HL-60
A549 = system: A549
HCT-116 = system: HCT-116
U-251 = system: U-251
SNB-19 = system: SNB-19
OVCAR-4 = system: OVCAR-4
T47D = system: T47D
SK-MEL-28 = system: SK-MEL-28
DU-145 = system: DU-145
OVCAR-8 = system: OVCAR-8
IGROV-1 = system: IGROV-1
ACHN = system: ACHN
SF-295 = system: SF-295
NCI-H460 = system: NCI-H460
COLO 205 = system: COLO 205
EKVX = system: EKVX
SK-OV-3 = system: SK-OV-3
MDA-N = system: MDA-N
PC-3 = system: PC-3
HOP-92 = system: HOP-92
UO-31 = system: UO-31
A498 = system: A498
NCI-H522 = system: NCI-H522
Malme-3M = system: Malme-3M
UACC-257 = system: UACC-257
CCRF-CEM = system: CCRF-CEM
SN12C = system: SN12C
786-0 = system: 786-0
NCI/ADR-RES = system: NCI/ADR-RES
SF-268 = system: SF-268
SW-620 = system: SW-620
TK-10 = system: TK-10
M14 = system: M14
SF-539 = system: SF-539
MDA-MB-231 = system: MDA-MB-231
RPMI-8226 = system: RPMI-8226
MOLT-4 = system: MOLT-4
MDA-MB-435 = system: MDA-MB-435
K562 = system: K562
HOP-62 = system: HOP-62
HCT-15 = system: HCT-15
LOX IMVI = system: LOX IMVI
UACC-62 = system: UACC-62
CAKI-1 = system: CAKI-1
HT-29 = system: HT-29

## CN(C)c1ccc(C(c2ccc(N(C)C)cc2)c2ccc([N+](=O)[O-])cc2)cc1
Hs-578T
  GI50: > 100 µM (inactive)
MCF7
  GI50: > 100 µM (inactive)
SK-MEL-5
  GI50: > 100 µM (inactive)
SR
  GI50: 90.6 µM (inactive)
HCC 2998
  GI50: > 100 µM (inactive)
SK-MEL-2
  GI50: > 100 µM (inactive)
NCI-H226
  GI50: > 100 µM (inactive)
KM12
  GI50: > 100 µM (inactive)
BT-549
  GI50: > 100 µM (inactive)
RXF 393
  GI50: > 100 µM (inactive)
OVCAR-3
  GI50: > 100 µM (inactive)
NCI-H23
  GI50: > 100 µM (inactive)
OVCAR-5
  GI50: > 100 µM (inactive)
HL-60
  GI50: 23.9 µM (inactive)
A549
  GI50: > 100 µM (inactive)
HCT-116
  GI50: > 100 µM (inactive)
U-251
  GI50: > 100 µM (inactive)
SNB-19
  GI50: > 100 µM (inactive)
OVCAR-4
  GI50: > 100 µM (inactive)
T47D
  GI50: > 100 µM (inactive)
SK-MEL-28
  GI50: > 100 µM (inactive)
DU-145
  GI50: > 100 µM (inactive)
OVCAR-8
  GI50: > 100 µM (inactive)
IGROV-1
  GI50: > 100 µM (inactive)
ACHN
  GI50: > 100 µM (inactive)
SF-295
  GI50: > 100 µM (inactive)
NCI-H460
  GI50: > 100 µM (inactive)
COLO 205
  GI50: > 100 µM (inactive)
EKVX
  GI50: > 100 µM (inactive)
SK-OV-3
  GI50: > 100 µM (inactive)
MDA-N
  GI50: > 100 µM (inactive)
PC-3
  GI50: > 100 µM (inactive)
HOP-92
  GI50: > 100 µM (inactive)
UO-31
  GI50: > 100 µM (inactive)
A498
  GI50: > 100 µM (inactive)
NCI-H522
  GI50: > 100 µM (inactive)
Malme-3M
  GI50: > 100 µM (inactive)
UACC-257
  GI50: > 100 µM (inactive)
CCRF-CEM
  GI50: > 100 µM (inactive)
SN12C
  GI50: > 100 µM (inactive)
786-0
  GI50: > 100 µM (inactive)
NCI/ADR-RES
  GI50: > 100 µM (inactive)
SF-268
  GI50: > 100 µM (inactive)
SW-620
  GI50: > 100 µM (inactive)
TK-10
  GI50: > 100 µM (inactive)
M14
  GI50: > 100 µM (inactive)
SF-539
  GI50: > 100 µM (inactive)
MDA-MB-231
  GI50: > 100 µM (inactive)
RPMI-8226
  GI50: 15.1 µM (inactive)
MOLT-4
  GI50: > 100 µM (inactive)
MDA-MB-435
  GI50: > 100 µM (inactive)
K562
  GI50: > 100 µM (inactive)
HOP-62
  GI50: > 100 µM (inactive)
HCT-15
  GI50: > 100 µM
LOX IMVI
  GI50: > 100 µM (inactive)
UACC-62
  GI50: > 100 µM (inactive)
CAKI-1
  GI50: > 100 µM (inactive)
HT-29
  GI50: > 100 µM (inactive)
